Experimental data as given in US9394282B2, “Pyrazole carboxamides as Janus kinase inhibitors” (Merck Sharp & Dohme Corp., priority 2011, dated 2016).

Columns and labels:
JAK1 = JAK1 (Homo sapiens (Human), UniProt P23458); test: Jak biochemical HTRF assay, JAK1; conditions: recombinant purified GST-tagged catalytic domain; HTRF format; [ATP] 31.8 μM
Source text: (§1) Jak Biochemical HTRF Assay Protocol
(§2) Subsequent reagent additions employed an Agilent Bravo.

JAK2 = JAK2 (Homo sapiens (Human), UniProt O60674); test: Jak biochemical HTRF assay, JAK2; conditions: recombinant purified GST-tagged catalytic domain, HTRF format
Source text: as §1, §2

Chain of JAK1 (P23458 875-1153): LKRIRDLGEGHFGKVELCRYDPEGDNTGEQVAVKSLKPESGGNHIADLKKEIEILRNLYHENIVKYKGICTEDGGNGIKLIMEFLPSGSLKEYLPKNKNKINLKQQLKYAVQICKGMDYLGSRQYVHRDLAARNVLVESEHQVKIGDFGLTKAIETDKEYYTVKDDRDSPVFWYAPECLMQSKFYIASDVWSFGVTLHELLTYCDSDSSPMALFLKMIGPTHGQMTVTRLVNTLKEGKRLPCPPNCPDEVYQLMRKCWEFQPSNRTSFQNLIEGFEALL
Chain of JAK2 (O60674 849-1124): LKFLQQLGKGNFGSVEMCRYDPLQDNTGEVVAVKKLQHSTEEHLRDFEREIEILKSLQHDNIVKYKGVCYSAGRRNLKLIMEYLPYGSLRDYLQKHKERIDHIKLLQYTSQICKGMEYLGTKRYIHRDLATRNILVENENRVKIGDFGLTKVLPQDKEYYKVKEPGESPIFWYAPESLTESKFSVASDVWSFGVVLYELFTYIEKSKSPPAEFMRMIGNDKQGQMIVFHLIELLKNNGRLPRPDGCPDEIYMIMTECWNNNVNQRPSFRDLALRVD

Row | IC50 (JAK1) [nM] | IC50 (JAK2; [ATP] 8.5 μM) [nM] | SMILES | IC50 (JAK2; [ATP] […]) [nM]
1 | 5 | 41 | CC(C)(C)OC(=O)N1CC[C@H](C#N)C(n2cc(C(N)=O)c(Nc3ccccc3)n2)C1 (mixture of isomers) [Example 1-3, tert-butyl(3R,4S and 3S,4R)-3-[4-(aminocarbonyl)-3-anilino-1H-pyrazol-1-yl]-4-cyanopiperidine-1-carboxylate] | 
2 | 2 | 19 | N#C[C@@H]1CCN(Cc2cscn2)C[C@H]1n1cc(C(N)=O)c(Nc2ccc(F)cc2)n1 (racemic) [Example 6-6, 1-[(3S,4R and 3R,4S)-4-cyano-1-(1,3-thiazol-4-ylmethyl)piperidin-3-yl]-3-[(4-fluorophenyl)amino]-1H-pyrazole-4-carboxamide] | 
3 | 2 | 18 | N#C[C@@H]1CCN(Cc2cocn2)C[C@H]1n1cc(C(N)=O)c(Nc2ccc(F)cc2)n1 (racemic) [Example 6-4, 1-[(3S,4R and 3R,4S)-4-cyano-1-(1,3-oxazol-4-ylmethyl)piperidin-3-yl]-3-[(4-fluorophenyl)amino]-1H-pyrazole-4-carboxamide] | 
4 |  |  | Cn1nccc1CN1CC[C@@H](n2cc(C(N)=O)c(Nc3ccc(F)cc3)n2)[C@H](C#N)C1 (mixture of isomers) [Example 6-32, 1-{(3R,4R and 3S,4S)-3-cyano-1-[(1-methyl-1H-pyrazol-5-yl)methyl]piperidin 4-yl}-3-[(4-fluorophenyl)amino]-1H-pyrazole-4-carboxamide] | 35
5 |  | 134 | N#C[C@H]1CCOC[C@@H]1n1cc(C(N)=O)c(Nc2ccc(Cl)nc2)n1 (single isomer, unassigned) [Example 9-27, 3-[(6-chloropyridin-3-yl)amino]-1-[(3R,4S or 3S,4R)-4-cyanotetrahydro-2H-pyran-3-yl]-1H-pyrazole-4-carboxamide] | 
6 |  | 37 | N#C[C@@H]1CN(Cc2cscn2)CC[C@H]1n1cc(C(N)=O)c(Nc2ccc(F)cc2)n1 (racemic) [Example 6-27, 1-[(3R,4R and 3S,4S)-3-cyano-1-(1,3-thiazol-4-ylmethyl)piperidin-4-yl]-3-[(4-fluorophenyl)amino]-1H-pyrazole-4-carboxamide] | 
7 |  | 841 | CC(C)(C)OC(=O)N1CCC(n2cc(C(N)=O)c(Nc3ccc(F)cc3)n2)[C@H](C#N)C1 (mixture of isomers) [Example 2-2, (3R,4S and 3S,4R)-tert-butyl 4-(4-carbamoyl-3-((4-fluorophenyl)amino)-1H-pyrazol-1-yl)-3-cyanopiperidine-1-carboxylate] | 
8 |  | 1390 | C#CCCOC(=O)N1CC[C@H](n2cc(C(N)=O)c(Nc3ccc(F)cc3)n2)[C@H](C#N)C1 (racemic) [Example 5-40, but-3-yn-1-yl (3R,4S and 3S,4R)-4-{4-carbamoyl-3-[(4-fluorophenyl)amino]-1H-pyrazol-1-yl}-3-cyanopiperidine-1-carboxylate] | 
9 |  | > 1500 | CC1(COC(=O)N2CC[C@H](n3cc(C(N)=O)c(Nc4ccc(F)cc4)n3)[C@H](C#N)C2)COC1 (racemic) [Example 5-45, (3-methyloxetan-3-yl)methyl (3R,4S and 3S,4R)-4-{4-carbamoyl-3-[(4-fluorophenyl)amino]-1H-pyrazol-1-yl}-3-cyanopiperidine-1-carboxylate] | 
10 |  | 11 | CCn1ccnc1CN1CC[C@@H](C#N)[C@H](n2cc(C(N)=O)c(Nc3ccc(F)cc3)n2)C1 (racemic) [Example 6-19, 1-{(3S,4R and 3R,4S)-4-cyano-1-[(1-ethyl-1H-imidazol-2-yl)methyl]piperidin-3-yl}-3-[(4-fluorophenyl)amino]-1H-pyrazole-4-carboxamide] | 
11 |  | 32 | N#C[C@H]1CS(=O)(=O)CC1n1cc(C(N)=O)c(Nc2ccc(F)cc2)n1 (mixture of isomers) [Example 8-5, 1-((3S,4S and 3R,4R)-4-cyano-1,1-dioxidotetrahydrothiophen-3-yl)-3-((4-fluorophenyl)amino)-1H-pyrazole-4-carboxamide] | 
